Results from PubChem BioAssay (NCI).
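Dose response: 5 concentrations. Exposure: 48 h. Format: 96-well plates. Endpoint: linear interpolation; highest concentration if not reached. GI50 is the concentration that inhibits growth by half. TGI is the concentration that stops growth completely.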

Tests used:
Assay in all cases: growth of human tumour cells (NCI), 48 h
CCRF-CEM leukemia = system: CCRF-CEM leukemia
SNB-19 CNS = system: SNB-19 CNS
SW-620 colon = system: SW-620 colon
NCI-H23 lung = system: NCI-H23 lung
KM12 colon = system: KM12 colon
HOP-62 NSCLC = system: HOP-62 NSCLC
SK-MEL-28 melanoma = system: SK-MEL-28 melanoma
HCT-15 colon = system: HCT-15 colon

Structure (SMILES) | GI50 (CCRF-CEM leukemia) [µM] | TGI (CCRF-CEM leukemia) [µM] | GI50 (SNB-19 CNS) [µM] | TGI (SNB-19 CNS) [µM] | GI50 (SW-620 colon) [µM] | TGI (SW-620 colon) [µM] | GI50 (NCI-H23 lung) [µM] | TGI (NCI-H23 lung) [µM] | GI50 (KM12 colon) [µM] | TGI (KM12 colon) [µM] | GI50 (HOP-62 NSCLC) [µM] | TGI (HOP-62 NSCLC) [µM] | GI50 (SK-MEL-28 melanoma) [µM] | TGI (SK-MEL-28 melanoma) [µM] | GI50 (HCT-15 colon) [µM] | TGI (HCT-15 colon) [µM]
O=S(=O)(NC(=S)Nc1ccccc1)c1ccc(N2N=C3c4ccccc4CC3C2c2cccs2)cc1 (stereo not given) | 30.5 | 85.9 | 33.8 | > 100 | 30 | > 100 | 17.6 | 39.5 | 21.5 | > 100 | 20.3 | 45.7 | 53.8 | > 100 | 22.6 | 63.5
Nc1nc2c(c3ncccc13)C(c1cccc(Cl)c1)Cc1ncccc1-2 (stereo not given) | 2.12 | 48.6 | 2.5 | 17.7 | 0.88 | 30.8 | 4.93 | 59.4 | 0.646 | 15.5 | 2.45 | 18.1 | 8.17 | 28.4 | 1.22 | 20.6
COc1ccc(-c2cnc(-c3ccc(F)cc3)[nH]2)cc1 | 18.1 | > 89.4 | 10.8 | 26.1 | 1.91 | 3.99 | 10.6 | 46.6 | 1.7 | 3.27 | 8.25 | 21.4 | 3.69 | 8.5 | 5.98 | 13.9
O=C(O)c1cc2ccccc2c(N=Nc2c([N+](=O)[O-])cc([N+](=O)[O-])cc2S(=O)(=O)O)c1O |  | > 100 |  | > 100 |  | > 100 |  | > 100 |  | > 100 |  | > 100 |  | > 100 |  | > 100
Cn1ccc(=Nc2ccc(NC(=O)c3ccc(N=c4ccn(C)c5ccc([N+](=O)[O-])cc45)cc3)cc2)cc1 | > 100 | > 100 | 0.923 | > 100 | 8.6 | > 100 | 43.9 | > 100 | 7.26 | > 100 | 8.25 | > 100 | 22.9 | 92.3 | > 100 | > 100
COc1ccc2cc(C(=O)/C=C/c3cccc(Cl)c3Cl)ccc2c1 | 52.6 | > 100 | 26.2 | > 83.3 | 1.32 | > 100 | 6.42 | 29.4 | 8.08 | 64.3 | 15.4 | 38.9 | 22.7 | > 71.9 | 2.13 | > 34.2
CCOC(=O)/C=C1\SC(=Nc2ccc(C#N)cc2)N(CCN2C(=O)/C(=C/C(=O)OCC)SC2=Nc2ccc(C#N)cc2)C1=O | 0.613 | 16.9 | 2.12 | 12.9 | 0.416 | 2.63 | 3.52 | 18.1 | 1.17 | 5.48 | 2.55 | 8.39 | 8.86 | 27.5 | 0.408 | 2.53
Cc1ccc(S(=O)(=O)Oc2ccc3c4c(c(=O)oc3c2)CCCCC4)cc1 | 5.18 | > 100 | > 100 | > 100 |  |  | 8 | > 100 | 7.16 | > 100 | > 100 | > 100 | > 100 | > 100 | 3.66 | > 100
CN(C)CCNC(=O)c1cccc2cc3ccccc3nc12 | 1.37 | > 32.1 | 2.21 | > 21.6 | 0.775 | 3.17 | 1.8 | 5.13 | 2.07 | 10.2 | 0.961 | 6.68 | 1.97 | 4.41 | 1.25 | 
Nc1ccn([C@H]2C[C@@H](O)[C@@H](CO)S2)c(=O)n1 |  |  | > 100 | > 100 | > 70.1 | > 100 | > 100 | > 100 | > 100 | > 100 | > 32 | > 100 | > 100 | > 100 | 11.8 | > 100
C/C=C(\C)C(=O)O[C@@H]1C(O)[C@H]2OC(COC(=O)CCC(=O)CCCCCC[C@H](CCCCC)O[C@@H]3OC(C)[C@H](OC(C)=O)C(O)[C@H]3O2)[C@H]1OC(=O)/C=C/c1ccccc1 (stereo not given in full) | 0.408 | > 100 | 0.156 | 15.5 | < 0.0114 | > 60 | 0.293 | 62.3 | < 0.0138 | > 100 | < 0.0148 | 7.18 | 0.021 | 9.59 | 0.034 | > 100
COc1cc2c3c(n(CCCN4CCN(C)CC4)c(=O)c2cc1OC)-c1cc2c(cc1C3=O)OCO2 | 2.44 | 17.7 | > 100 | > 100 | 11.2 | 54.1 | 11.9 | 24.1 | 12.8 | 29 | 18 | 95.8 | 16.5 | 43.2 | 16 | 36.1
N#CC1C(=N)Cc2ccccc2-c2ccccc21 (stereo not given) | 4.42 | > 100 | 9.44 | > 100 | 4.22 | 43.4 | 11.2 | 68.8 | 3.43 | 16.1 | 4.59 | 56.2 | 6.36 | 30.3 |  | 
COc1cc2cc(Oc3ccc(NC(=O)Nc4ccccc4)cc3)c(C)nc2cc1OCCN1CCCCC1 | 1.05 | 4.29 | 5.77 | 11 | 6.09 | 11.9 | 6.4 | 13.7 | 6.8 | 14.3 | 5.96 | 12.9 | 5.41 | 9.92 | 4.18 | 9.14
CC[N+](CC)=c1ccc2nc3c(cc(NCc4ccccc4)c4ccccc43)oc-2c1 | 0.476 | 7.15 | 1.19 | 2.51 | 0.302 | 1.4 | 0.148 | 0.352 | 0.292 | 1.32 | 0.512 | 1.86 | 1.2 | 2.47 | 0.378 | 2.29
CCC(C(=O)[O-])C(=O)[O-].CCC(C(=O)[O-])C(=O)[O-].N.N.NCCCCCN.[Pt+4].[Pt+4] | 55.9 | > 100 | > 100 | > 100 | > 100 | > 100 | > 100 | > 100 | > 100 | > 100 | > 100 | > 100 | > 100 | > 100 | > 100 | > 100
FC(F)(F)c1ccc(C=NC23CC4CC(CC(C4)C2)C3)cc1 |  | > 100 |  | > 100 |  | > 100 |  | > 100 |  | > 100 |  | > 100 |  | > 100 |  | > 100
Nc1c(C(=O)c2cccc(OCCN3CCOCC3)c2)cnn1-c1ccc(F)cc1 | > 25 | > 25 | > 25 | > 25 | > 25 | > 25 | > 25 | > 25 | > 25 | > 25 | > 25 | > 25 | > 25 | > 25 | > 25 | > 25
COc1ccc2nc(NCCCNCCO)c3sc4ccc(F)cc4c(=O)c3c2c1 |  |  | 1.7 | 3.2 | 1.53 | 3.04 | 1.73 | 3.27 | 1.81 | 3.52 | 1.62 | 3.26 | 1.78 | 3.21 | 1.28 | 2.64
COC(=O)c1c2c(c(C)[n+]([O-])c1C)C(=O)C=C(NCc1cccc(OC)c1)C2=O | 0.471 |  |  |  | 0.318 | 1.26 | 0.515 | 2.57 |  |  | 1.58 | 3.39 |  |  | 0.331 | 1.61
NCCNCC(O)CO (stereo not given) |  |  |  | > 100 |  | > 100 |  | > 100 |  | > 100 |  | > 100 |  | > 100 |  | > 100
O=C(Nc1cnn2ccc(N3CCC[C@@H]3c3cc(F)ccc3F)nc12)N1CC[C@H](O)C1 |  |  | > 100 | > 100 | > 100 | > 100 | > 100 | > 100 | 0.0122 | > 100 | > 100 | > 100 | > 100 | > 100 | > 100 | > 100
O=C1c2cccnc2-c2nc(/C=C/c3ccccc3)cc3c2c1nc1ccccc13 | 3.06 | > 100 | 2.51 | 6.13 |  |  | 1.6 | 3.58 | 1.78 | 5.04 | 2.78 | 11.8 | 2.3 | 4.18 | 0.844 | 2.1
CCCCn1c2c(c3ccccc3c1=O)C(=O)c1ccccc1-2 |  | > 100 |  |  |  | > 100 |  | > 100 |  | > 100 |  | > 100 |  | > 100 |  | > 100
